# Test results taken from US7842684B2, “Diphenylazetidinone derivatives possessing cholesterol absorption inhibitor activity” (AstraZeneca AB, priority 2006, dated 2010).
# Tests used:
# [1] = Absorption in a Caco-2 cells model; assay type: in vitro ADME; conditions: human
# Protocol: Absorption of the compounds of formula (I) was tested in a Caco-2 cells model (Gastroenterology 1989, 96, 736): […]
# [2] = system: 14C-cholesterol absorption; test: In Vivo Testing of Cholesterol Absorption Inhibitors (A); conditions: 0.2 μmol/kg by gavage, procedure A, C57BL/6 female mice
# Protocol: In Vivo Testing of Cholesterol Absorption Inhibitors (A)
# C57BL/6 female mice were maintained on regular chow diet and housed in individual cages to collect faeces. Mice were fasted for 3 hours and then gavaged with vehicle or compound. Half an hour later the mice were gavaged with radiolabelled cholesterol. Six hours after the ^14C-cholesterol gavage blood samples were taken via the tail and plasma prepared to determine how much cholesterol were absorbed. 24 hours after the gavage of ^14C-cholesterol the mice were bled and plasma were prepared for analysis. Faeces were collected for 24 hours to assess absorption efficiency.
SMILES,Papp [1],inhibition of 14C-cholesterol absorption [2]
"CC(C)[C@@H](NC(=O)CNC(=O)COc1ccc([C@@H]2[C@@H](SC[C@H](O)c3ccc(F)cc3)C(=O)N2c2ccc(C#CCNS(C)(=O)=O)cc2)cc1)C(=O)O [Example 2, N-({4-[(2R,3R)-3-{[(2R)-2-(4-fluorophenyl)-2-hydroxyethyl]thio}-1-(4-{3-[(methylsulfonyl)amino]prop-1-yn-1-yl}phenyl)-4-oxoazetidin-2-yl]phenoxy}acetyl)glycyl-D-valine]",0.02 ×10⁻⁶ cm/s,
"CS(=O)(=O)NCC#Cc1ccc(N2C(=O)[C@H](SC[C@H](O)c3ccc(F)cc3)[C@H]2c2ccc(OCC(=O)NCC(=O)O)cc2)cc1 [Example 6, N-({4-[(2R,3R)-3-{[(2R)-2-(4-fluorophenyl)-2-hydroxyethyl]thio}-1-(4-{3-[(methylsulfonyl)amino]prop-1-yn-1-yl}phenyl)-4-oxoazetidin-2-yl]phenoxy}acetyl)glycine]",,90%
"CS(=O)(=O)NCC#Cc1ccc(N2C(=O)[C@H](SC[C@H](O)c3ccc(F)cc3)[C@H]2c2ccc(OCC(=O)NCC(=O)N[C@H](CC3CCCCC3)C(=O)O)cc2)cc1 [Example 1, N-({4-[(2R,3R)-3-{[(2R)-2-(4-fluorophenyl)-2-hydroxyethyl]thio}-1-(4-{3-[(methylsulfonyl)amino]prop-1-yn-1-yl}phenyl)-4-oxoazetidin-2-yl]phenoxy}acetyl)glycyl-3-cyclohexyl-D-alanine]",0.04 ×10⁻⁶ cm/s,
